Results reported in patent publication US8889397B2, “Nucleotides for prevention and treatment of bacterial and fungal pathologies” (priority 2003, dated 2014).

Legend:
[1] = tested on: SM101; assay: inhibition of bacterial growth by ODN (OD600 or viable cell count); format: cell-based, E. coli; details: ODN 40 μM or 400 μM, 30° C., 2, 4 or 6 h
Experimental: Immediately after diluting the O/N cultures 1/50, ODN was added to final concentrations of 4 uM, 40 μM or 400 μM with equal volume water as a negative control, and incubated with shaking at 30° C. After 2, 4 or 6 h, the growth was measured by viable cell count, which was done by diluting the cultures and plating on LB plates with streptomycin.
The inhibition of bacterial growth by ODN was evaluated by examining the effect of ODN dosage on SM101 growth. In this study, an ODN having the sequence CTC ATA CTC T was added to the 1/50 diluted O/N SM101 cell cultures, at final concentration of 40 μM or […] with addition of equal volume water as a negative control, and incubated with shaking at 30° C. After 2, 4 or 6 h, the growth was measured by either the optical density at 600 nm (OD600) or viable cell count, which was done by diluting the cultures and plating them in triplicate on LB plates with streptomycin.

[2] = tested on: FtsZ RNA; assay: in vitro cleavage of FtsZ RNA by DNA enzyme in a cell-free system; format: biochemical; details: 37° C., 100 nM template FtsZ RNA, 100 μM DNA enzyme, 10 mM MgCl2, pH 7.5; products 368 nt and 857 nt
Experimental: Lane 1 is a control reaction incubated for 2 hrs in the absence of DNA enzyme. S: substrate; P1 (857 nt) and P2 (368 nt): DNA enzyme digestion products.
The ability of the pssXGb(FtsZ-DZ) expression vector of the present invention to produce DNA enzyme molecules in bacterial cells was tested by evaluating the cleavage activity of the designed DNA enzyme in a cell-free system. The 1225 nt FtsZ RNA, produced by in vitro transcription, is used as a substrate and the cleavage assay is carried out at 37° C. for various period of time as indicated in a 10 μl reaction containing 10 mM MgCl2, 50 mM Tris-HCl, pH 7.5, 100 nM template FtsZ RNA, 100 μM DNA enzyme, and 10 units RNasin.

[3] = tested on: K12; assay: inhibition of bacterial growth by peptide-ODN conjugate (viable cell count); format: cell-based, E. coli; details: conjugate 4 μM, 40 μM or 400 μM, 37° C., 2 hours
Experimental: The inhibition of bacterial growth by peptide-[…] conjugate was evaluated by examining the effect of conjugate dose on the ability of conjugate to inhibit K12 growth. In this study, a peptide-ODN conjugate having the sequence
was added to the 1/50 diluted O/N K12 cell cultures, and final concentration of 4 μM, 40 μM, or 400 μM, with addition of equal volume water as a negative control, and incubated with shaking at 37° C. Immediately after, diluting the O/N culture 1/50, peptide-ODN conjugate was added to final concentration of 4 μM, 40 μM, or […], with addition of equal volume water as a negative control, and incubated with shaking at 37° C. After 2 hours, growth was measured by viable cell count by diluting the cultures and plating in triplicate on LB plates. […] Reduction of Mouse Bacterial Load in Blood by Peptide-ODN Conjugate.

[4] = tested on: DH5αPro; assay: conditionally lethal effect of ODN expression plasmid in DH5αPro on LB media with or without aTc; format: cell-based; details: DH5αPro carrying the plasmid; with or without 200 ng/ml aTc
Experimental: Colonies were grown in duplicate in LB plates with or without aTc. Positive clone (containing the pssXGb vector including the sequence CYGX080103) is marked by an arrow.
The CYGX080103 plasmid and the plasmid without ODN insert as negative control were transformed into DH5αPro and plated onto LB media with or without 200 ng/ml aTc. […] DH5αPro carrying plasmid without the ODN insert grows on both media (FIG. 10B).
Since the ssDNA expression library was constructed based on a tetracycline inducible vector, bacterial cells containing the ssDNA expression library were plated in duplicate in Luria broth (LB) plates in the presence or absence 200 ng/ml aTc. […] Plasmid DNA was extracted from the positive colony from the library screening, and the insert sequences determined by 3′ end single-pass sequencing. The insert generated by this set of experiments was named CYGX080103, with sequence of:
The antibacterial efficacy of the ODN CYGX080103 was further evaluated in two separate experiments. The first was designed to examine the conditionally lethal effect of the ODN expression plasmid in the host cell DH5αPro, the bacterial strain employed in the library screening. The second experiment was designed to study the effect of the ODN expression plasmid on other bacterial strains. […]

[5] = tested on: E. coli XL10-gold(kan); assay: growth of XL10-gold(kan) transformed with ODN expression plasmid; format: cell-based; details: XL10-gold(kan) transformants; LB with chloramphenicol, 37° C. O/N
Experimental: The transformants were plated on LB media with chloramphenicol and incubated at 37° C.
The antibacterial efficacy of the ODN CYGX080103 was further evaluated in two separate experiments. The first was designed to examine the conditionally lethal effect of the ODN expression plasmid in the host cell DH5αPro, the bacterial strain employed in the library screening. The second experiment was designed to study the effect of the ODN expression plasmid on other bacterial strains. In the first study, the ODN expression plasmid and the plasmid without ODN insert as negative control were transformed into DH5αPro and plated onto LB media with or without 200 ng/ml aTc. […] DH5αPro cells carrying the plasmid without the ODN insert grow on both media (FIG. 10B). In the second study, the ODN expression plasmid and the plasmid without ODN insert were transformed into E. coli XL10-gold(kan). The resulted transformants were plated on LB media with chloramphenicol and incubated at 37° C.
In this study, the ODN expression plasmid As080103, having the sequence CYGX080103 listed above, and plasmid pssxGb without ODN insert as negative control, were transformed into E. coli XL10-goldokan). The resulting cell cultures were plated on LB media with chloramphenicol and incubated at 37° C.

Molecule: 5′(CTC ATA CTC T)3′ (DNA CTCATACTCT; chemistry not given here) [CYGXacpP, ODN targeting the bacterial essential fatty acid biosynthesis gene acpP]
- cell growth inhibited [1]: 86-96%

Molecule: 5′-GTTTCGAAGGCTAGCTACAACGATCATCCAG-3′ (listed as DNA, chemistry not fully specified) [CYGXFtsZDZ, 31 nt 10-23 DNA enzyme targeted against the GU site at position 880 of FtsZ mRNA]
- cleavage of FtsZ RNA [2]: effectively cleave the FtsZ RNA in as short a time as 0.5 hr

Molecule: KFFKFFKFFK-CTC ATA CTC T (KFFKFFKFFK peptide conjugated to PNA) [peptide-ODN conjugate, peptide-PNA conjugate]
- cell growth inhibited [3]: 82-99.8%

B1: 5′-CTTTCAACAGTTTTGATGACCTTTGCTGACCATACAATTGCGATATCGTGGGGAGTGAGAG-3′ (nucleic acid)
DNA: CTTTCAACAGTTTTGATGACCTTTGCTGACCATACAATTGCGATATCGTGGGGAGTGAGAG
modifications: expressed or natural sequence
notes: ODN insert of the positive clone from ssDNA expression library screening
- growth on LB media [4]: grow normally on the media without aTc but not on media with aTc
- growth on LB media [5]: no XL10-gold(kan) carrying ODN expression plasmid grew
